From patent US20150136167A1, “METHOD OF TREATING HAIR” (priority 2012, published 2015)

Legend:
[1] = Hair straightening with application to wet hair, Experiment 3
[2] = Hair straightening on dry hair switches (volume of switch image), Experiments 1 and 4
Procedure: Dark brown European wavy#6 switches of length 25 cm and weight 2 gms, were dosed with 2 ml each of 5% citric acid solutions at various pH's. They were combed straight and left to dry for at least 20 minutes. They were subsequently rinsed for 30 seconds under the tap. They were then combed straight and left to dry overnight. When dry the switches were combed straight and pictures taken. […] (Here volume refers to the projection of the switch image on to the screen and is given in mm^2).

[3] = Solubility of actives at the 5% level; assay type: physicochemical
[4] = 5% solution at pH 2, 2 ml dosed on dry switch, left at least 20 min, rinsed, combed, dried overnight
[5] = 5% solution at pH 2, dosed on dry switch
[6] = 5% solution at pH 3, dosed on dry switch
[7] = 5% solution at pH 4, dosed on dry switch
[8] = 5% solution at pH 5, dosed on dry switch
[9] = 5% solution at pH 6, dosed on dry switch

SMILES | Volume in mm^2 [2, 4] | % benefit over water [2, 5] | % benefit over water [2, 6] | Volume in mm^2 [2, 6] | other results
O=C(O)CC(O)(CC(=O)O)C(=O)O [citric acid] | 9481 mm^2 | 33.6% | 32.9% | 9574 mm^2 | straightening benefit compared with the results with dry hair ([1]; 5% solution at pH 2 applied to wet hair): significantly reduced; straightening benefit compared with the results with dry hair ([1]; 5% solution at pH 3 applied to wet hair): significantly reduced; % benefit over water [2, 7]: 17.9%; Volume in mm^2 [2, 7]: 11717 mm^2; % benefit over water [2, 8]: 23.9%; Volume in mm^2 [2, 8]: 10871 mm^2; % benefit over water [2, 9]: 15.0%; Volume in mm^2 [2, 9]: 12136 mm^2
O=C(O)CC(O)C(=O)O (stereo not drawn) [Malic acid] | 12426 mm^2 | 13.0% |  |  | 
O=C(O)/C=C(\CC(=O)O)C(=O)O [trans Aconitic acid] | 8456 mm^2 | 40.8% | 17.3% | 11812 mm^2 | 
O=C(O)C(=O)O [Oxalic acid] | 13419 mm^2 | 6.0% |  |  | 
O=C(O)/C=C/C(=O)O [Fumaric acid] |  |  |  |  | solubility at the 5% level [3]: not soluble at the 5% level
O=C(O)CC(=O)O [Malonic acid] | 11220 mm^2 | 21.4% | 16.3% | 11950 mm^2 | 
O=C(O)C(O)c1ccccc1 (stereo not drawn) [Mandelic acid, reference compound] | 13545 mm^2 | 5.1% |  |  | 
